Laboratory results as given in patent US4404209A, “Analgesic mixture of nalbuphine and sulindac” (E. I. Du Pont de Nemours and Company, priority 1982, dated 1983).
Like-named read-outs stand apart in the source and are kept apart here.

Test system: phenyl-p-benzoquinone induced writhing in mice
Settings: oral; for % mice blocked: 40 min
Protocol: The phenyl-p-benzoquinone induced writhing test in mice [H. Blumberg et al., Proc. Soc. […] The method simply consists of reading the % ED50 DOSE for each dose ratio on the best fit regression analysis curve from the mouse isobologram, multiplying each component by its effective species dose, and then forming the ratio of the amount of nalbuphine to sulindac. […] [E. W. Pelikan, The Pharmacologist, 1, 73 (1959).]
The mixture is sonicated at 150 watts for 1-2 minutes with an ultrasound system, then shaken for two hours at 280 oscillations/minute with 15-20 gm of glass beads. The resultant suspension contains 16 mg/ml of sulindac; all dosing suspensions are prepared by dilution of the stock suspension with the Methocel®/Tween 80® vehicle; the vehicle control is Methocel®/Tween 80®. All suspensions are prepared fresh daily.
Each mouse is used only once, then discarded.
In order to study the interaction between nalbuphine and sulindac, 5 precise dosage ratios of nalbuphine hydrochloride and sulindac are selected.

Compound	% mice blocked (nalbuphine HCl 5.45 mg/kg, sulindac 0)	% mice blocked (nalbuphine HCl 10.9 mg/kg, sulindac 0)	% mice blocked (nalbuphine HCl 21.8 mg/kg, sulindac 0)	% mice blocked (nalbuphine HCl 43.6 mg/kg, sulindac 0)	% mice blocked (nalbuphine HCl 87.2 mg/kg, sulindac 0)	ED50 at 40 min, nalbuphine HCl (95% confidence limits) (mouse, nalbuphine HCl dose, alone or as component of the fixed-ratio combination)	% mice blocked (nalbuphine HCl 0, sulindac 4.75 mg/kg)	% mice blocked (nalbuphine HCl 0, sulindac 9.5 mg/kg)	% mice blocked (nalbuphine HCl 0, sulindac 19.0 mg/kg)	% mice blocked (nalbuphine HCl 0, sulindac 38.0 mg/kg)	ED50 at 40 min, sulindac (95% confidence limits) (mouse, sulindac dose, alone or as component of the fixed-ratio combination)
Oc1ccc2c3c1O[C@H]1[C@@H](O)CC[C@@]4(O)[C@@H](C2)N(CC2CCC2)CC[C@]314 [Nalbuphine, (-)-17-(cyclobutylmethyl)-4,5α-epoxymorphinan-3,6α,14-triol]	16.7%	40.0%	36.7%	63.3%	90.0%	30.8 mg/kg					
CC1=C(CC(=O)O)c2cc(F)ccc2/C1=C\c1ccc([S+](C)[O-])cc1 (centres unmarked) [Sulindac, (Z)-5-fluoro-2-methyl-1-{[4-(methylsulfinyl)phenyl]methylene}-1H-indene-3-acetic acid]							20.0%	20.0%	46.7%	96.7%	21.2 mg/kg
